In patent publication US10961196B2, “Compounds for use as an anti-bacterial or anti-fungal agent and as a zinc sensor” (UNIVERSITÄT KONSTANZ, priority 2016, dated 2021):
pIC50: −log10 of the molar value. Where “and” joins values, the source holds several entries; their conditions need not be identical. Identical values can stand only once.

Tests used:
S. aureus USA 300 (MRSA) = assay: Minimum inhibitory concentration (MIC), 96-well plates, serial dilutions in LB medium; assay type: cell-based; conditions: Staphylococcus aureus; S. aureus USA 300 (MRSA), LB medium; read-out: Minimum inhibitory concentration (MIC)
Description: (§1) Example 12: Determination of the Minimum Inhibitory Concentration (MIC) with Non-Pathogenic E. coli and B. subtilis and/or Pathogenic Strains of S. aureus Including Three MRSA Strains (USA 300, Mu50 and DSM18827) as Well as the Pathogenic Fungus Candida albicans
(§2) Minimum inhibitory concentrations (MIC) for compounds 1 to 11 with non-pathogenic E. coli and B. subtilis and/or pathogenic strains of S. aureus including three MRSA strains (USA 300, Mu50 and DSM18827) as well as the pathogenic fungus Candida albicans were determined in 96-well plates with serial dilutions in LB medium.
Example 21: Determination of the Minimum Inhibitory Concentration (MIC) for the Compounds Represented by the Formulas (14) and (16) with the Pathogenic USA 300 (MRSA) Strain of S. aureus
Minimum inhibitory concentrations (MIC) for the compounds represented by the Formulas (14) and (16) with the pathogenic MRSA strains of S. aureus USA 300 were determined in 96-well plates with serial dilutions in LB medium.

S. aureus NCTC 8325 = assay: as above; assay type: cell-based; conditions: Staphylococcus aureus, NCTC8325; S. aureus NCTC 8325, LB medium; read-out: Minimum inhibitory concentration (MIC)
Description: as §1, §2

B. subtilis = assay: as above; assay type: cell-based; conditions: Bacillus subtilis; B. subtilis, LB medium; read-out: Minimum inhibitory concentration (MIC)
Description: as §1, §2

[1] = tested on: S. aureus DSM18827 (MRSA); assay: as above; assay type: cell-based; conditions: Staphylococcus aureus, DSM 11827 / DSM 18827 / MRSA; S. aureus DSM18827 (also printed DSM11827), MRSA, LB medium; read-out: Minimum inhibitory concentration (MIC)
Description: as §1, §2

S. aureus Mu50 (MRSA) = assay: as above; assay type: cell-based; conditions: Staphylococcus aureus; S. aureus Mu50 (MRSA), LB medium; read-out: Minimum inhibitory concentration (MIC)
Description: as §1, §2

Candida albicans = assay: as above; assay type: cell-based; conditions: C. albicans, LB medium, read-out: Minimum inhibitory concentration (MIC)
Description: as §1, §2

elastase (LasB) [2] = biological target: elastase (LasB) (Pseudomonas aeruginosa, UniProt P14756); assay: In vitro elastase assay with fluorogenic substrate Abz-peptide-Nba; assay type: biochemical, P. aeruginosa
Experimental: Example 16: In Vitro Inhibition of Elastase (LasB) with Compounds 6, 7, and 12
An in-vitro elastase assay was performed according to Cathcart et al. (G. R. Cathcart, B. F. Gilmore, B. Greer, P. Harriott, B. Walker, Bioorganic & medicinal chemistry letters 2009, 19, 6230-6232). For a typical in vitro elastase assay 82 μL buffer (0.05 M TRIS HCl, 2.5 mM CaCl2, pH=7.2) and 5 μL of compound 6 solved in DMSO were added in a 96 well plate. 10 μL of 3 μg/mL elastase (solved in the same Tris/CaCl2 buffer) were added and mixed with the compound. After incubation for 10 min at room temperature, 3 μL fluorogenic substrate Abz-peptide-Nba (2-aminobenzoyl-Ala-Gly-Leu-Ala-4-nitrobenzylamide) in DMF were added and the fluorescence measured for 90 min in one minute steps (excitation at 330 nm, emission at 460 nm). The slope of the resulting graph was used to calculate the enzymatic activity.

elastase (LasB) [3] = biological target: T1, elastase (LasB) (Pseudomonas aeruginosa, UniProt Q02RJ6); assay: In situ inhibition of elastolytic activity (Elastin-Congo Red) with life cultures of P. aeruginosa PA14; assay type: cell-based
T1 construct: 1.4 mL of the culture was centrifuged and the supernatant filtered through a sterile filter; endogenous in cells; host or cells: P. aeruginosa PA14 culture (supernatant)
Experimental: Example 17: In Situ Inhibition of Elastase (LasB) with Compound 6
The in situ efficacy of Compound 6 was investigated by measuring the concentration dependent inhibition of elastolytic activity with life cultures of P. aeruginosa. The elastase assay was performed according to Calfee et al. (M. W. Calfee, J. P. Coleman, E. C. Pesci, Proceedings of the National Academy of Sciences of the United States of America 2001, 98, 11633-11637.) 10 μL of an overnight culture of PA14 was added to 3 mL of PTSB medium together with 15 μL of Compound 6 dissolved in DMSO at different stock concentrations. The culture was incubated for 24 h at 37° C. and 200 rpm. 1.4 mL of the culture was centrifuged and the supernatant filtered through a sterile filter. Thereafter, 0.5 mL ECR-buffer (0.1 M Tris HCl, 1 mM CaCl2, pH=7.2) together with 10 mg Elastin-Congo Red was added to 0.5 ml of the sterile flow-through and the mixture incubated for 3 h at 37° C. and 1600 rpm. After the incubation, 0.1 mL Na2EDTA (0.12 M) was added to quench the enzymatic reaction. After mixing, the solution was centrifuged (10 min at 6000 rpm) and 0.2 mL of the supernatant measured at 495 nm in a 96 well plate. It was observed that Compound 6 is an efficient inhibitor of elastolytic activity in situ resulting in sigmoidal inhibition behaviour with an IC50 of 40 μM (cf. FIG. 9).

Chain of elastase (LasB) (Pseudomonas aeruginosa, UniProt P14756) (P14756 198-498): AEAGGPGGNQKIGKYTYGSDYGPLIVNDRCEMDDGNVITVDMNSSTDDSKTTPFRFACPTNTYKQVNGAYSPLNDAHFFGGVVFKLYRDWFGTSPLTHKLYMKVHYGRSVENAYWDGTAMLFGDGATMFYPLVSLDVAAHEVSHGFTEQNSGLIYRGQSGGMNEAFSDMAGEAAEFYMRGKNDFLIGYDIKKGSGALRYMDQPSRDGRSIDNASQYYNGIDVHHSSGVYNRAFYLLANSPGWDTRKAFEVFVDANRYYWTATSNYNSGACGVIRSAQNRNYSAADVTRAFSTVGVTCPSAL
T1 sequence (Q02RJ6 198-498): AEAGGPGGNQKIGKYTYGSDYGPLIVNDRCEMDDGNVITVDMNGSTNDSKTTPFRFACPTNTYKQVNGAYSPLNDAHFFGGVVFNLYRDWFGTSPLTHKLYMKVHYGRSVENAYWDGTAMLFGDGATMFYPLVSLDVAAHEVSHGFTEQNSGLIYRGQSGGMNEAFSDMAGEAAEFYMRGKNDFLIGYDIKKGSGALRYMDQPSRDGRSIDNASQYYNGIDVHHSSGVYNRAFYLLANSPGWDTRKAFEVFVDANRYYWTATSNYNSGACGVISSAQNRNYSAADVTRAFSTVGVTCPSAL

With CCCCCCCc1[nH]c2ccccc2c(=S)c1O [Compound 6, 2-heptyl-3-hydroxyquinoline-4(1H)-thione] as the molecule, how does the MIC (S. aureus USA 300 (MRSA)) read?
The MIC was 150 µM and 41.3 µg/mL.

What about the MIC (S. aureus NCTC 8325) of the same molecule?
The MIC was 100 µM and 27.5 µg/mL.

And the MIC (B. subtilis)?
Its MIC is 125 µM and 34.4 µg/mL.

What about the MIC [1] of the same molecule?
The MIC was 150 µM and 41.3 µg/mL.

What about the MIC (S. aureus Mu50 (MRSA)) of the same molecule?
The MIC was 150 µM and 41.3 µg/mL.

And the MIC (Candida albicans)?
Its MIC is 100 µM and 27.5 µg/mL.

What about the pIC50 (elastase (LasB) [2]) of the same molecule?
Its pIC50 is 5.40.

What about the pIC50 (elastase (LasB) [3]) of the same molecule?
Its pIC50 is 4.40.
